# According to PMC11345841, “Exploring 2-Sulfonylpyrimidine Warheads as Acrylamide Surrogates for Targeted Covalent Inhibition: A BTK Story” (Journal of Medicinal Chemistry, 2024):
# Where two headings read alike, the source gives them in different places.
# Key:
# EGFR(L858R,T790M) = biological target: T1, EGFR(L858R,T790M) (Homo sapiens, UniProt P00533, L858R/T790M); experiment: KINOMEscan ScanTK; assay type: binding
# T1 construct: purchased Eurofins DiscoverX KINOMEscan (scanTK)
# EPHB2 = biological target: T2, EPHB2 (Homo sapiens, UniProt P29323); experiment: KINOMEscan ScanTK; assay type: binding
# T2 construct: purchased Eurofins DiscoverX KINOMEscan (scanTK)
# T2 sequence (P29323 19-1055): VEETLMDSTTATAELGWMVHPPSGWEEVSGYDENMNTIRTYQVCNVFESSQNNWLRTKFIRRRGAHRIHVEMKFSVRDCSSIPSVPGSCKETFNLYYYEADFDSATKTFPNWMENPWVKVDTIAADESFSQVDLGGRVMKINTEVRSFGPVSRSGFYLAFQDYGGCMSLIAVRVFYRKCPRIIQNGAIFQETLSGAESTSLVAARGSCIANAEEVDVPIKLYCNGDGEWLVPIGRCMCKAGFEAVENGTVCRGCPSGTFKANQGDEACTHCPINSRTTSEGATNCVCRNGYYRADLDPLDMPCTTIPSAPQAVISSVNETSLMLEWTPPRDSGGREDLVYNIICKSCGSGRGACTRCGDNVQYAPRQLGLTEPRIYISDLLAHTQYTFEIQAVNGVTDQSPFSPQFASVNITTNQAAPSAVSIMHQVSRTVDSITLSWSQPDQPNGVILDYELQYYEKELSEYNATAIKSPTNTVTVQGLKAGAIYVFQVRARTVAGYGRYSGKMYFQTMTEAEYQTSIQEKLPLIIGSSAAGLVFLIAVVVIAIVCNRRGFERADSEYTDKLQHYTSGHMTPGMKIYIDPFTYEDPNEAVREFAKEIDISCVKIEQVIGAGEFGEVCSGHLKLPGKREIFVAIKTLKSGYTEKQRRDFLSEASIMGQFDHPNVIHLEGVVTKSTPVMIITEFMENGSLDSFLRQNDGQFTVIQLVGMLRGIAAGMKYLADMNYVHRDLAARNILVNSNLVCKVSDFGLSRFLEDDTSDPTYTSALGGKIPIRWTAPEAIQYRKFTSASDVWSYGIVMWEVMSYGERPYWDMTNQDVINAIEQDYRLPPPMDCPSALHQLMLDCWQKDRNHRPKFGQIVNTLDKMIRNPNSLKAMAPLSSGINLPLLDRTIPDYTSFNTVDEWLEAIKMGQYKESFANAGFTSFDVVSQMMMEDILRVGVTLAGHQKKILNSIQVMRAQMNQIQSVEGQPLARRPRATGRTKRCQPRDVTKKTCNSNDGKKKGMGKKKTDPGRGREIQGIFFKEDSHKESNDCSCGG
# [1] = biological target: T3, JAK3(JH1domain-catalytic) (Homo sapiens, UniProt P52333); experiment: KINOMEscan ScanTK; assay type: binding; settings: for difference in %Control from compound Ib at 1 µM / remaining binding at 1 µM: JAK3(JH1domain-catalytic); for inhibition at 1 µM: ScanTK
# T3 construct: JAK3(JH1domain-catalytic); purchased Eurofins DiscoverX KINOMEscan (scanTK)
# T3 sequence (P52333 822-1124 limits assumed): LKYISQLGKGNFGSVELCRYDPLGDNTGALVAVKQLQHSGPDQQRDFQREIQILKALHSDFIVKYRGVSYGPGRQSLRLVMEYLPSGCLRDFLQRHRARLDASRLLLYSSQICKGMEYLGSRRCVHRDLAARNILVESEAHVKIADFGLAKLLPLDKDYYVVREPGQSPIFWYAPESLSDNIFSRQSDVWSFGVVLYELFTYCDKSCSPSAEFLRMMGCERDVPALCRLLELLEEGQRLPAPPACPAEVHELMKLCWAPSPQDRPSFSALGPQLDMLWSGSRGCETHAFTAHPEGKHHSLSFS
# KIT(A829P) = biological target: T4, KIT(A829P) (Homo sapiens, UniProt P10721, A829P); experiment: KINOMEscan ScanTK; assay type: binding
# T4 construct: purchased Eurofins DiscoverX KINOMEscan (scanTK)
# T4 sequence (P10721 26-976 A829P): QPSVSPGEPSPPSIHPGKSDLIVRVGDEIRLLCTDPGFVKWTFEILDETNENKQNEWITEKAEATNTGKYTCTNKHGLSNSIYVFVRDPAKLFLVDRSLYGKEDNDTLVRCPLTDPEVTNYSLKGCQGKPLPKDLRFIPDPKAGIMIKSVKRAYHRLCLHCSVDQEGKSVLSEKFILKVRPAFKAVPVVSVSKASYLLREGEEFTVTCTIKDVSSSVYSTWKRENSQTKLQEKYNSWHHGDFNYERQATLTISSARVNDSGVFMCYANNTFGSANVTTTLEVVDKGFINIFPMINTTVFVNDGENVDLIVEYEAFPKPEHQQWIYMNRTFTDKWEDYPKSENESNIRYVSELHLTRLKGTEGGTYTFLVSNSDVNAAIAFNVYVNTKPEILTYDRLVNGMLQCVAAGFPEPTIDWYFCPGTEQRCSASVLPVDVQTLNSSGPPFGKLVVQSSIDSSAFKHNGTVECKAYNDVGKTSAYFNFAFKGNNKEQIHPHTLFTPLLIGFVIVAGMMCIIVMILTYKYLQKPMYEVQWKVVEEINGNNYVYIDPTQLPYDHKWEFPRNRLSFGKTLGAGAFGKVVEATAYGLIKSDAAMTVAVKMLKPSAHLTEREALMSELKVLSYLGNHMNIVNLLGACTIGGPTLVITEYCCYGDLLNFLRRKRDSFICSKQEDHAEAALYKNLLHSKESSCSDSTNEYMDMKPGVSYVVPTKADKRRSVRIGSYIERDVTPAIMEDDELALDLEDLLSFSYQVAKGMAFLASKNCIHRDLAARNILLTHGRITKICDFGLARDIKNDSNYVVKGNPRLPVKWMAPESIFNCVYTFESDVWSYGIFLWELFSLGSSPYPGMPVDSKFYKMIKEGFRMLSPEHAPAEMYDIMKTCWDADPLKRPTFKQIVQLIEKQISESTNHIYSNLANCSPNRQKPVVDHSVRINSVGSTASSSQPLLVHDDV
# KIT(L576P) = biological target: T5, KIT(L576P) (Homo sapiens, UniProt P10721, L576P); experiment: KINOMEscan ScanTK; assay type: binding; settings: for difference in %Control versus Ib at 1 µM: read-out: % difference (compound - Ib %Control)
# T5 construct: purchased Eurofins DiscoverX KINOMEscan (scanTK)
# T5 sequence (P10721 26-976 L576P): as the sequence (P10721 26-976 A829P) above, with L551P, P804A counted along it
# LYN = biological target: T6, LYN (Homo sapiens, UniProt P07948); experiment: KINOMEscan ScanTK; assay type: binding
# T6 construct: purchased Eurofins DiscoverX KINOMEscan (scanTK)
# T6 sequence (P07948 whole entry): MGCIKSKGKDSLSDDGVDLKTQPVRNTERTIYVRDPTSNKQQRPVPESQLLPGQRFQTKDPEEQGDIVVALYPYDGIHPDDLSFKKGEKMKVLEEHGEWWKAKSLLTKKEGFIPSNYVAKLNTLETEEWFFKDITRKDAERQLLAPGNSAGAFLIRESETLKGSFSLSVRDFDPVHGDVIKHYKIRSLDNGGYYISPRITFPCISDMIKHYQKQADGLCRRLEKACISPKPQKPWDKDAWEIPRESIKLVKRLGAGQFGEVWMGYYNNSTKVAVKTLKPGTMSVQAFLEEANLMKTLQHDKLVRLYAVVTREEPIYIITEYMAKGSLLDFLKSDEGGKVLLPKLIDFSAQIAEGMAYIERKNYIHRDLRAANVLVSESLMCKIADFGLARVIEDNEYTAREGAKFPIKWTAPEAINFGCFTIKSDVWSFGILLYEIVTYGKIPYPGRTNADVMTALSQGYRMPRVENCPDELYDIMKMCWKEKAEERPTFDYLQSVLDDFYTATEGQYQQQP
# TNK2 = biological target: T7, TNK2 (Homo sapiens, UniProt Q07912); experiment: KINOMEscan ScanTK; assay type: binding
# T7 construct: purchased Eurofins DiscoverX KINOMEscan (scanTK)
# T7 sequence (Q07912 whole entry): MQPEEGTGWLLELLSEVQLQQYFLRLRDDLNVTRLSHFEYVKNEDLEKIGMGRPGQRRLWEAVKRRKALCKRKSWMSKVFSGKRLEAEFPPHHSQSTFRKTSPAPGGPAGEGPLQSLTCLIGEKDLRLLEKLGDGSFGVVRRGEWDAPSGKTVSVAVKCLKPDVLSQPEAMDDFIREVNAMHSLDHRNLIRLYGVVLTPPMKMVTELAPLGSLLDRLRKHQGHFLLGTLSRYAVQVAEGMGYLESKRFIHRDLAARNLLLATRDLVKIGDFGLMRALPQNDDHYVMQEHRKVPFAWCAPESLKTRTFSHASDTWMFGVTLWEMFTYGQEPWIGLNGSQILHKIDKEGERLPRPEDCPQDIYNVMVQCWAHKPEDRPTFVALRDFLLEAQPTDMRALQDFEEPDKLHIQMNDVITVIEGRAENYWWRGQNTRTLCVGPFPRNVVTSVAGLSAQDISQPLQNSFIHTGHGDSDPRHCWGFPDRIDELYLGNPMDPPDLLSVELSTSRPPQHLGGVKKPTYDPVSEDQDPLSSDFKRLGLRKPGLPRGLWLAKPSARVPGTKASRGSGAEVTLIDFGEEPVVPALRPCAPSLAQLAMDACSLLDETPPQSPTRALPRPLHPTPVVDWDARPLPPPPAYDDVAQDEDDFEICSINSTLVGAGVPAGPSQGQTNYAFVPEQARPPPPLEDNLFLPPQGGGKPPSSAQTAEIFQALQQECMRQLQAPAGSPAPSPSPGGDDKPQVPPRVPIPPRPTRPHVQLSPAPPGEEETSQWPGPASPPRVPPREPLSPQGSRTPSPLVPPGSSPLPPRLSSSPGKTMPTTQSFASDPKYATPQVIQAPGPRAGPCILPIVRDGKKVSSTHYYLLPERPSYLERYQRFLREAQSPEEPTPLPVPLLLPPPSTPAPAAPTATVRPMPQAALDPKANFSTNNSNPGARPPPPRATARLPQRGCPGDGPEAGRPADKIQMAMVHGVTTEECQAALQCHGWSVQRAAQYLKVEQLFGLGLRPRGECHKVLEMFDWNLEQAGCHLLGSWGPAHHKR
# TRKA = biological target: T8, TRKA (Homo sapiens, UniProt P04629); experiment: KINOMEscan ScanTK; assay type: binding; settings: TRKA
# T8 construct: purchased Eurofins DiscoverX KINOMEscan (scanTK)
# T8 sequence (P04629 33-796): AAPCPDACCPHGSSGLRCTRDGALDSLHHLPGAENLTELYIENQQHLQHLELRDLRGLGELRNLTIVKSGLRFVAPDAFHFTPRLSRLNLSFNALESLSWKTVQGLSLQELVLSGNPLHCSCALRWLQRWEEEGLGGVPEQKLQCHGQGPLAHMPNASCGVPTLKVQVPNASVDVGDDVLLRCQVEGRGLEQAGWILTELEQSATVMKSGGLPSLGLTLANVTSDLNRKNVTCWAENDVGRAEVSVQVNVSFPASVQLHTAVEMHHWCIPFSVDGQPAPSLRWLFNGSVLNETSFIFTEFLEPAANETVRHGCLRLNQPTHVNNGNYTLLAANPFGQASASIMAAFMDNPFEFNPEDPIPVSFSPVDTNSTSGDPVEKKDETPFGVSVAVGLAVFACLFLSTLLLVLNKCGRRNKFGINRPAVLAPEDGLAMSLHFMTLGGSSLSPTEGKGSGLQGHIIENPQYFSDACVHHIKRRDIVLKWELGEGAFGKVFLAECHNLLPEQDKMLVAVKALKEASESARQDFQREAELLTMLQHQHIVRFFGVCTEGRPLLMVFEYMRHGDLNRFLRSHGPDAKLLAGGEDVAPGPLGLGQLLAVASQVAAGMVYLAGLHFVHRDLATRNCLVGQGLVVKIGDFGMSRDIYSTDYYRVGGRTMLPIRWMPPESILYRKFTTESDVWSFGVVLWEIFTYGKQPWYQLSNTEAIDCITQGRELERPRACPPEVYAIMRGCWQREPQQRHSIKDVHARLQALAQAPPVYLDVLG
# TMD8 cells = experiment: RNA-seq gene expression; settings: TMD8, 1 μM, 8 h; for number of genes reduced vs DMSO: FDR < 0.01, log2FC < -0.5; for number of genes increased vs DMSO: FDR < 0.01, log2FC > 0.5
# [2] = biological target: JAK3, catalytic domain (795–1124) (Homo sapiens, UniProt P52333); experiment: PhosphoSens enzymatic IC50 (AssayQuant)
# T1 sequence (P00533 25-1210 T790M/L858R): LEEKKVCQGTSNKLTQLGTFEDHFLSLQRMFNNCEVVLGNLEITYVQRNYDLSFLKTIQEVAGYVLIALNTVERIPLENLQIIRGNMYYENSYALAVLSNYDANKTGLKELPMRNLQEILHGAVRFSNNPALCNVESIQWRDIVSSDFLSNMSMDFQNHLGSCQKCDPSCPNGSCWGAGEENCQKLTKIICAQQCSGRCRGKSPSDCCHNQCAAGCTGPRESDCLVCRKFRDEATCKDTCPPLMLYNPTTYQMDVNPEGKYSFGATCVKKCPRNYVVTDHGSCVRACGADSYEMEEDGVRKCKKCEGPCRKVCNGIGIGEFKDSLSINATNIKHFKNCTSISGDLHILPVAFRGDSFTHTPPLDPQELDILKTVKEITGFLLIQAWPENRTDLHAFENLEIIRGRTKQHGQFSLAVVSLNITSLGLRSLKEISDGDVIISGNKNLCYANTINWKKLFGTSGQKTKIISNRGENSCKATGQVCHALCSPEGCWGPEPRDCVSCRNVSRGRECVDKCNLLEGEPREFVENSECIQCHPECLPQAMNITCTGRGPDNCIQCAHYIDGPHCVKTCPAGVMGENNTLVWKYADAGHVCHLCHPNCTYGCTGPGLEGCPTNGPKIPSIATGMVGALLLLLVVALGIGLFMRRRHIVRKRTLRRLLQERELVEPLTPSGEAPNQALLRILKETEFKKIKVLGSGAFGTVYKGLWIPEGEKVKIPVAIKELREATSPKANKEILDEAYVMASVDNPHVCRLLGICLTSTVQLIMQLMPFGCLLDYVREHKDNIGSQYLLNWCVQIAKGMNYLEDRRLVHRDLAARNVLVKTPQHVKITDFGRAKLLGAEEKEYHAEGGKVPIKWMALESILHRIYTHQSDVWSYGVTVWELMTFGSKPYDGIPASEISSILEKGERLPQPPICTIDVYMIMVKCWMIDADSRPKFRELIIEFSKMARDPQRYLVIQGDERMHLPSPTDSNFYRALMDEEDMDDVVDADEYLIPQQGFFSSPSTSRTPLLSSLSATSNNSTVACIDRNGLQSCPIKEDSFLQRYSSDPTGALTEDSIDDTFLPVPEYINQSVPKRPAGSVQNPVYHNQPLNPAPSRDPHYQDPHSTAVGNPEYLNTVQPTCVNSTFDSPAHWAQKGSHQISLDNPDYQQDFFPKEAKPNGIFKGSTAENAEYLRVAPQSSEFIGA
"difference in % of control versus compound Ib at 1 µM (EGFR(L858R,T790M); @1000nM) [%]","remaining binding at 1 µM (EGFR(L858R,T790M); @1000nM, read-out: %Control) [%]","remaining binding at 1 µM (EGFR(L858R,T790M); read-out: %Control @1000nM) [%]",%Control difference from compound Ib at 1 µM (EPHB2; @1000nM) [%],"remaining binding at 1 µM (EPHB2; @1000nM, read-out: %Control) [%]",remaining binding at 1 µM (EPHB2; read-out: %Control @1000nM) [%],difference in %Control from compound Ib at 1 µM ([1]; @1000nM) [%],"remaining binding at 1 µM ([1]; @1000nM, read-out: %Control) [%]",remaining binding at 1 µM ([1]; read-out: %Control @1000nM) [%],inhibition at 1 µM [1] [%],"remaining binding at 1 µM (KIT(A829P); @1000nM, read-out: %Control) [%]",remaining binding at 1 µM (KIT(A829P); read-out: %Control @1000nM) [%],difference in %Control versus Ib at 1 µM (KIT(L576P); @1000nM) [%],"remaining binding at 1 µM (KIT(L576P); @1000nM, read-out: %Control) [%]",remaining binding at 1 µM (KIT(L576P); read-out: %Control @1000nM) [%],"remaining binding at 1 µM (LYN; @1000nM, read-out: %Control) [%]",remaining binding at 1 µM (LYN; read-out: %Control @1000nM) [%],"remaining binding at 1 µM (TNK2; @1000nM, read-out: %Control) [%]",remaining binding at 1 µM (TNK2; read-out: %Control @1000nM) [%],difference in % of control versus compound Ib at 1 µM (TRKA; @1000nM) [%],Structure (SMILES),also measured
81,91,91,-16,84,84,94.5,100,100,< 1,84,84,12,44,44,21,21,96,96,12,"Cc1cnc(S(C)(=O)=O)nc1N1CCCC(n2nc(-c3ccc(Oc4ccccc4)cc3)c3c(N)ncnc32)C1 (stereo not shown) [Compound 8a, 1-(1-(5-Methyl-2-(methylsulfonyl)pyrimidin-4-yl)piperidin-3-yl)-3-(4-phenoxyphenyl)-1H-pyrazolo[3,4-d]pyrimidin-4-amine]","remaining binding at 1 µM (TRKA; @1000nM, read-out: %Control): 97%; remaining binding at 1 µM (TRKA; read-out: %Control @1000nM): 97%; number of genes unchanged vs DMSO (TMD8 cells): 14761 genes; number of genes reduced vs DMSO (TMD8 cells): 189 genes; number of genes increased vs DMSO (TMD8 cells): 97 genes; IC50 [2]: > 1000 nM"
69,79,79,-9,91,91,94.5,100,100,< 1,70,70,24,56,56,49,49,100,100,4,"COC(=O)c1cnc(S(C)(=O)=O)nc1N1CCCC(n2nc(-c3ccc(Oc4ccccc4)cc3)c3c(N)ncnc32)C1 (stereo not shown) [Compound 8b, Methyl 4-(3-(4-Amino-3-(4-phenoxyphenyl)-1H-pyrazolo[3,4-d]pyrimidin-1-yl)piperidin-1-yl)-2-(methylsulfonyl)pyrimidine-5-carboxylate]","remaining binding at 1 µM (TRKA; @1000nM, read-out: %Control): 89%; remaining binding at 1 µM (TRKA; read-out: %Control @1000nM): 89%; number of genes unchanged vs DMSO (TMD8 cells): 15031 genes; number of genes reduced vs DMSO (TMD8 cells): 15 genes; number of genes increased vs DMSO (TMD8 cells): 1 genes; IC50 [2]: > 1000 nM"
